These results are taken from PubChem BioAssay (NCI).

Test systems include NCI-H23 lung; SK-OV-3 ovarian; NCI-H460 lung; RXF 393 renal; HOP-62 NSCLC; SK-MEL-28 melanoma; MDA-MB-231 breast; TK-10 renal; LOX IMVI melanoma; SN12C renal; EKVX NSCLC; UACC-62 melanoma.
Assay in all cases: NCI tumour cell line growth inhibition, 48 h

Each structure is given as a SMILES string.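 How tested: cells in 96-well plates exposed to compound for 48 hours at five concentrations. The concentration for full growth arrest is given as TGI.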 *1 amine or outer side, *2 acyl side, *3 side chain or, on linkers, in order; H or OH if unused. Where a SMILES comes first, the peptide text is derived from it. Bridges are numbered along the chain shown (N, C = ends). [ ]: non-standard residue; d: D form. The star is where a group is joined. ξ: configuration not given here. X34 = O=C(C(CCCCNO[*:3])N[*:1])[*:2]; Fmoc = O=C(OCC1c2ccccc2-c2ccccc21)*; ξW = NC(Cc1c[nH]c2ccccc12)C(=O)O; ξP = O=C(O)C1CCCN1 Where only a bound is given, the exact number is not on record here.

As for `NC(=O)CNC(=O)C1CCCN1C(=O)C1CCCCNOC(=O)CC[C@@H](NC(=O)OCC2c3ccccc3-c3ccccc32)C(=O)NC(Cc2c[nH]c3ccccc23)C(=O)N1` (some centres not stated) (Fmoc-[dE][ξW][X34][ξP]G-NH2; ester 1-3), the TGI with NCI-H23 lung, with SK-OV-3 ovarian, in the assay on NCI-H460 lung, in the assay with RXF 393 renal, in the assay with HOP-62 NSCLC and in the assay on SK-MEL-28 melanoma was greater than 100 µM each time. Also, the TGI with MDA-MB-231 breast, in the assay with TK-10 renal, with LOX IMVI melanoma, in the assay on SN12C renal, in the assay with EKVX NSCLC and with UACC-62 melanoma was greater than 100 µM each time.

On to `CSc1nc(Cl)c2c(n1)Sc1nc3cc4c(cc3n1C2O)OCCO4` (configuration not stated), for which the TGI is 19.9 µM in the assay with NCI-H23 lung; greater than 53.4 µM in the assay with SK-OV-3 ovarian; 2.39 µM in the assay on NCI-H460 lung; 19.3 µM with RXF 393 renal; 23 µM in the assay with HOP-62 NSCLC; 21.7 µM with SK-MEL-28 melanoma. For the same compound, the TGI in the assay on MDA-MB-231 breast came to 34.3 µM; in the assay with TK-10 renal, 32.9 µM; in the assay on LOX IMVI melanoma, 0.392 µM; in the assay on SN12C renal it was 46.6 µM; in the assay with EKVX NSCLC, 36.3 µM; in the assay on UACC-62 melanoma, 7.87 µM.

Take `CC(C)Sc1nc(C#N)cc2c1CCCC2`: the TGI in the assay with NCI-H23 lung was greater than 100 µM; with SK-OV-3 ovarian, greater than 100 µM; with NCI-H460 lung, greater than 100 µM; with RXF 393 renal it was 87.9 µM; in the assay with HOP-62 NSCLC it was greater than 100 µM; with SK-MEL-28 melanoma, greater than 100 µM. Also, the TGI in the assay with MDA-MB-231 breast is greater than 100 µM; in the assay with TK-10 renal, greater than 100 µM; in the assay with LOX IMVI melanoma it was 70.3 µM; with SN12C renal, greater than 100 µM; with EKVX NSCLC, greater than 100 µM; in the assay with UACC-62 melanoma it was greater than 100 µM.

Regarding `O=C1C(Cl)=C(N2CCN(C3=C(Cl)C(=O)c4ccccc4C3=O)CC2)C(=O)c2ccccc21`, the TGI with NCI-H23 lung came to 3.11 µM; in the assay with SK-OV-3 ovarian it was 28 µM; with NCI-H460 lung, 13.6 µM; in the assay on RXF 393 renal, 3.02 µM; in the assay with HOP-62 NSCLC, 25.5 µM; in the assay on SK-MEL-28 melanoma, 3.48 µM. Further, the TGI with MDA-MB-231 breast was 3.34 µM; in the assay with TK-10 renal, 3.42 µM; in the assay on LOX IMVI melanoma, 3.12 µM; with SN12C renal it was 3.09 µM; with EKVX NSCLC, 4.91 µM; with UACC-62 melanoma, 3.29 µM.

`CC1(C)OCC(COC(=O)C=[N+]=[N-])O1` (configuration not stated): the TGI in the assay on NCI-H23 lung, with SK-OV-3 ovarian, with NCI-H460 lung, in the assay with RXF 393 renal, in the assay on HOP-62 NSCLC and with SK-MEL-28 melanoma was greater than 100 µM each time. In addition, the TGI in the assay on MDA-MB-231 breast, in the assay on TK-10 renal, with LOX IMVI melanoma, in the assay on SN12C renal, in the assay with EKVX NSCLC and in the assay with UACC-62 melanoma was greater than 100 µM each time.

On to `Cc1nc2c(sc(=S)n2-c2ccccc2)c2nc3ncccc3n12`, for which the TGI was greater than 100 µM with NCI-H23 lung; greater than 100 µM in the assay with SK-OV-3 ovarian; greater than 100 µM in the assay on NCI-H460 lung; greater than 100 µM with RXF 393 renal; 90.3 µM in the assay with HOP-62 NSCLC; greater than 100 µM in the assay on SK-MEL-28 melanoma. The TGI with MDA-MB-231 breast, in the assay on TK-10 renal, with LOX IMVI melanoma, in the assay on SN12C renal, in the assay on EKVX NSCLC and with UACC-62 melanoma was greater than 100 µM each time.

Consider `CCN(CC)CCc1c2c(nc3ccccc13)C(=O)c1cccnc1C2=O`, for which the TGI was found to be 8.53 µM in the assay on NCI-H23 lung; 4.22 µM in the assay with SK-OV-3 ovarian; 7 µM in the assay on RXF 393 renal; 11.8 µM in the assay with HOP-62 NSCLC; 7.27 µM in the assay with SK-MEL-28 melanoma; 6.72 µM in the assay on MDA-MB-231 breast. The TGI in the assay with TK-10 renal was 12.6 µM; with LOX IMVI melanoma, 2.31 µM; in the assay on SN12C renal, 5.92 µM; in the assay with EKVX NSCLC, 13.7 µM; in the assay on UACC-62 melanoma, 2.97 µM.

In the case of `NC(C(F)(F)F)(C(F)(F)F)P(=O)(Cc1ccccc1)Cc1ccccc1`, the TGI with NCI-H23 lung, in the assay on SK-OV-3 ovarian, with NCI-H460 lung, in the assay on RXF 393 renal, with HOP-62 NSCLC and with SK-MEL-28 melanoma was greater than 100 µM throughout. Also, the TGI in the assay with MDA-MB-231 breast, with TK-10 renal, with LOX IMVI melanoma, in the assay on SN12C renal, with EKVX NSCLC and in the assay on UACC-62 melanoma was greater than 100 µM each time.

As to `Cc1ccc(-c2c(C#N)c(-c3ccccc3)n(NS(=O)(=O)c3ccccc3)c(=O)c2C#N)cc1`, the TGI in the assay on SK-OV-3 ovarian, in the assay on NCI-H460 lung, in the assay with RXF 393 renal, in the assay on HOP-62 NSCLC, with SK-MEL-28 melanoma and with MDA-MB-231 breast was greater than 100 µM throughout. Moreover, the TGI with TK-10 renal, in the assay on LOX IMVI melanoma, in the assay on SN12C renal, in the assay with EKVX NSCLC and in the assay on UACC-62 melanoma was greater than 100 µM each time.

`COc1cccc(-c2cc(=O)c3ccccc3o2)c1N`: the TGI in the assay with NCI-H23 lung, in the assay on SK-OV-3 ovarian, with NCI-H460 lung, in the assay on RXF 393 renal, with HOP-62 NSCLC and in the assay with SK-MEL-28 melanoma was greater than 100 µM each time. Moreover, the TGI in the assay on MDA-MB-231 breast, in the assay on TK-10 renal, in the assay with LOX IMVI melanoma, in the assay with SN12C renal, in the assay on EKVX NSCLC and with UACC-62 melanoma was greater than 100 µM throughout.

On to `OCCCCCNc1c2ccccc2nc2ccccc12`, for which the TGI in the assay on NCI-H23 lung was 5.47 µM; in the assay with SK-OV-3 ovarian, 13.7 µM; in the assay with NCI-H460 lung it was 3.5 µM; with RXF 393 renal, 10.9 µM; in the assay with HOP-62 NSCLC it was 6.68 µM; in the assay with SK-MEL-28 melanoma it was 16.9 µM. The TGI in the assay with MDA-MB-231 breast was 10.7 µM; with TK-10 renal, 20.3 µM; with LOX IMVI melanoma, 4.7 µM; with SN12C renal, 9.34 µM; with EKVX NSCLC, 17.5 µM; in the assay on UACC-62 melanoma it was 3.92 µM.

In the case of `CCOc1cc(NC(C)=O)ccc1C(=O)NNC(=O)c1ccccc1OC(C)=O`, the TGI was greater than 100 µM with NCI-H23 lung; greater than 100 µM in the assay with SK-OV-3 ovarian; 32.9 µM in the assay with NCI-H460 lung; greater than 30.2 µM in the assay on RXF 393 renal; greater than 100 µM with HOP-62 NSCLC; greater than 100 µM in the assay on SK-MEL-28 melanoma. The TGI is greater than 100 µM in the assay with MDA-MB-231 breast; 7.03 µM in the assay with TK-10 renal; greater than 100 µM in the assay on LOX IMVI melanoma; greater than 91.4 µM with SN12C renal; greater than 70.4 µM in the assay on EKVX NSCLC; 37 µM with UACC-62 melanoma.
